Structures are written as SMILES.

For 22 molecules, IC50 results are on record in US11878975B2, “Substituted indole compounds useful as TLR inhibitors” (BRISTOL-MYERS SQUIBB COMPANY, priority 2017, dated 2024).

What all share (format): cell-based
One assay deals with T1, human TLR7 (Homo sapiens, UniProt Q9NYK1).
T1 construct: host or cells: HEK-Blue cells
T1 sequence (Q9NYK1 27-1049): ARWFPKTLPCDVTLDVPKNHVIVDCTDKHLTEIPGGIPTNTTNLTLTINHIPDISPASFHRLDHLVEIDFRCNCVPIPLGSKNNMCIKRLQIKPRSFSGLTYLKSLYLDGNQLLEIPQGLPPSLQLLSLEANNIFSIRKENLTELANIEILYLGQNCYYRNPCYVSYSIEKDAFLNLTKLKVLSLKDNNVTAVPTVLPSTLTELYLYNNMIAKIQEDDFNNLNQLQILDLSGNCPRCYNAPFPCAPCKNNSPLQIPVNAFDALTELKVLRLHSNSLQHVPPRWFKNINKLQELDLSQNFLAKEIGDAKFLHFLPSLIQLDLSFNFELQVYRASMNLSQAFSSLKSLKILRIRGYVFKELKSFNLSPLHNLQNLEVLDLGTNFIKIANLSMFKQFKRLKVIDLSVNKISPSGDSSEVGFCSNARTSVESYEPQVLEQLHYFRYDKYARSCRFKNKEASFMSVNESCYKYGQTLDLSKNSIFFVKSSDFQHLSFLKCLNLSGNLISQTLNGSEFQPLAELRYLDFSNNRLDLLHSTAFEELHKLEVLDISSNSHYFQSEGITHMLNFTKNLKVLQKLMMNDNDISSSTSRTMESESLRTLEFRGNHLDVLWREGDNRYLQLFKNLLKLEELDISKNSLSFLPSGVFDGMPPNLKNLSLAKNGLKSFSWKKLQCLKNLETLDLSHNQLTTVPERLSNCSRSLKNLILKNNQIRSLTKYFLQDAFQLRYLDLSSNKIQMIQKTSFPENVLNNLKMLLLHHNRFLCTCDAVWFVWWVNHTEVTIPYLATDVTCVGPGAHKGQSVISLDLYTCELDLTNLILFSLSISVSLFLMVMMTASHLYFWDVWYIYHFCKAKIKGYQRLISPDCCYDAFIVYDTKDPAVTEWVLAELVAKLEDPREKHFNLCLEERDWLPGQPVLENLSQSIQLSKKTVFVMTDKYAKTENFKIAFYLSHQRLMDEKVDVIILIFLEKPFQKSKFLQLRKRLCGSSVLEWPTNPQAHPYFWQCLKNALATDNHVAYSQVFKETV
The assay can be described thus: TLR7 inhibition reporter assay (HEK-Blue cells, SEAP reporter, gardiquimod stimulation). The settings on record: HEK-Blue cells overexpressing human TLR7, SEAP reporter, gardiquimod 7.5 μM. The method in brief: (§1)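 Dose range 0.05 nM–50 μM; 30 min preincubation, RT. Agonists: TLR7 gardiquimod 7.5 μM, TLR8 R848 15.9 μM, TLR9 ODN2006 5 nM. 22 h, 37 °C, 5% CO2. SEAP (IFN-β minimal promoter with NF-κB/AP-1 sites) via colorimetric detection medium; % inhibition vs agonist+DMSO and reference-inhibitor wells.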

The next assay deals with T2, human TLR9 (Homo sapiens, UniProt Q9NR96).
T2 construct: host or cells: HEK-Blue cells
T2 sequence (Q9NR96 26-1032): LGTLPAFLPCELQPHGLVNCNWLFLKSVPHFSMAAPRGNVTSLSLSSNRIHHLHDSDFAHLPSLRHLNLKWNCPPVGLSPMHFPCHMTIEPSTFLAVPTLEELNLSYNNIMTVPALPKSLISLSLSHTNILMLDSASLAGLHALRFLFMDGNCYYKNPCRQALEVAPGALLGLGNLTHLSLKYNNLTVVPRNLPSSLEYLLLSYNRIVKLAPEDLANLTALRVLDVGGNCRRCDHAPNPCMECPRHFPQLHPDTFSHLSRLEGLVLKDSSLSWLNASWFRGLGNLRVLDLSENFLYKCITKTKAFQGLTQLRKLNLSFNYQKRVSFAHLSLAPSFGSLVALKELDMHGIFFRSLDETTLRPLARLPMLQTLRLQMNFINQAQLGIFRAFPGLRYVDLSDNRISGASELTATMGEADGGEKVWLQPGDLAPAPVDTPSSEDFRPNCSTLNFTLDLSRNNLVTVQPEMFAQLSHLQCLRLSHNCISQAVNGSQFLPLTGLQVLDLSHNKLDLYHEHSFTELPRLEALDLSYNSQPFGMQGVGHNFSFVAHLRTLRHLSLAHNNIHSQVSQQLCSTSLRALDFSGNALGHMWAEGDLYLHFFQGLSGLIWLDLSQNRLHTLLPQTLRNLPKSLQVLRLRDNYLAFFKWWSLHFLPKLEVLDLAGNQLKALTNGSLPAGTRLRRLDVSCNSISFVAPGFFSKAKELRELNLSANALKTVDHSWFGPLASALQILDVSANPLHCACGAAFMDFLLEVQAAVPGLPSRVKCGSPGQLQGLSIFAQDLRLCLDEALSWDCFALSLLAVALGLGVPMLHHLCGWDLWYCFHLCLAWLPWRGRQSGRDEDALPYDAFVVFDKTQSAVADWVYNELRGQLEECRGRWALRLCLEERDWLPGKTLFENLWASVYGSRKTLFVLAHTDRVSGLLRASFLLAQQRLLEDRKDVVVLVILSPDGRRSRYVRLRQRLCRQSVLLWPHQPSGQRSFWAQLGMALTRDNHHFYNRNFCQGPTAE
Nature of the assay: TLR9 inhibition reporter assay (HEK-Blue cells, SEAP reporter, ODN2006 stimulation). The settings on record: HEK-Blue cells overexpressing human TLR9, SEAP reporter, ODN2006 5 nM. The essentials:
as §1

For the next assay, the target named is T3, human TLR8 (Homo sapiens, UniProt Q9NR97).
T3 construct: host or cells: HEK-Blue cells
T3 sequence (Q9NR97 27-1041): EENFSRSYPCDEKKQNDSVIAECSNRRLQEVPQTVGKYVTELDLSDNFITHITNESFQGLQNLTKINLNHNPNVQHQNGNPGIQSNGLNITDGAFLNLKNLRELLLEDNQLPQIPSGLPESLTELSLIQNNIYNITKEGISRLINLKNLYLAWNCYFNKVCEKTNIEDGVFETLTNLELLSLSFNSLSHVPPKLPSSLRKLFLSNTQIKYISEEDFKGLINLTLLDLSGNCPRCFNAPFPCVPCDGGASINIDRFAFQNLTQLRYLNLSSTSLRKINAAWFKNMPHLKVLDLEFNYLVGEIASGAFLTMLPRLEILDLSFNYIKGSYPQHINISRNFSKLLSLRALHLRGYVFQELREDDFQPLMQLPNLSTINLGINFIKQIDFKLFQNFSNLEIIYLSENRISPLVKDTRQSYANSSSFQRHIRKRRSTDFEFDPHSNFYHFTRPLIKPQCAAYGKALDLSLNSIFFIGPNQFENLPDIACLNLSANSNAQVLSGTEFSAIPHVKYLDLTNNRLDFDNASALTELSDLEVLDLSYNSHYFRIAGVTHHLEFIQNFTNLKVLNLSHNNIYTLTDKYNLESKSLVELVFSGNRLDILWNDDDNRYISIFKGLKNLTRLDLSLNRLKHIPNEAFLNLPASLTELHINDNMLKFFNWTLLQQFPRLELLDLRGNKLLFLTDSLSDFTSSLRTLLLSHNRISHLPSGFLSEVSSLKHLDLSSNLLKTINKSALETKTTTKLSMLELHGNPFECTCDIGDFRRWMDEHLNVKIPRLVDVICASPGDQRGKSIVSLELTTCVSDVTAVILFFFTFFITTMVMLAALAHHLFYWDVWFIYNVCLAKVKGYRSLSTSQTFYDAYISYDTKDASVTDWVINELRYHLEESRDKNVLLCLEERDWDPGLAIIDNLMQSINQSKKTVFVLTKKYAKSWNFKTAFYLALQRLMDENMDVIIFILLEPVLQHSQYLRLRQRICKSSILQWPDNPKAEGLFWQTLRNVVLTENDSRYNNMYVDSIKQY
Nature of the assay: TLR8 inhibition reporter assay (HEK-Blue cells, SEAP reporter, R848 stimulation). To be noted: HEK-Blue cells overexpressing human TLR8, SEAP reporter, R848 15.9 μM. The essentials: as §1

`Cc1cc(-c2[nH]c3ccc([C@H]4C[C@H]4C(=O)N4CC5CNCC5C4)cc3c2C(C)C)ccn1` (stereo partly drawn) [Example 455]: the IC50 on human TLR7 amounted to 188 nM; against human TLR9 it was 326 nM; at human TLR8, 16 nM.

As for `Cc1cc(-c2[nH]c3ccc([C@H]4C[C@H]4C(=O)NC4CCNCC4)cc3c2C(C)C)ccn1` [Example 456], the IC50 at human TLR7 came out at 124 nM; at human TLR9, 224 nM; on human TLR8, 56 nM.

For the molecule `Cc1cc(-c2[nH]c3ccc([C@H]4C[C@H]4C(=O)NC4CCC5CNCC54)cc3c2C(C)C)ccn1` (stereo partly drawn) [Example 457], the results for the IC50 at human TLR7, on human TLR9 and against human TLR8 were 189 nM, 646 nM and 50 nM, respectively.

As to `Cc1cc(-c2[nH]c3ccc([C@@H]4C[C@H]4C(=O)NC4CCN(C(C)C)CC4)cc3c2C(C)C)ccn1` [Example 458], the results for the IC50 on human TLR7, on human TLR9 and on human TLR8 were 57 nM, 2270 nM and 21 nM, respectively.

For the molecule `Cc1cc(-c2[nH]c3ccc([C@@H]4C[C@H]4C(=O)N(C)C4CC5CCN4CC5)cc3c2C(C)C)ccn1` (stereo partly drawn) [Example 459], the IC50 at human TLR7 was determined as 19 nM; on human TLR9, 174 nM; on human TLR8, 10 nM.

With `Cc1cc(-c2[nH]c3ccc([C@@H]4C[C@H]4C(=O)NC4CC5CCN4CC5)cc3c2C(C)C)ccn1` (stereo partly drawn) [Example 460], the half-maximal inhibitory concentration (IC50) against human TLR7 amounted to 51 nM; against human TLR9, 179 nM; at human TLR8, 31 nM.

On to `Cc1cc(-c2[nH]c3ccc([C@@H]4C[C@H]4C(=O)NC4CC5CCN4CC5)cc3c2C(C)C)ccn1` (stereo partly drawn) [Example 461], for which the figures for the IC50 against human TLR7, on human TLR9 and on human TLR8 were 86 nM, 467 nM and 30 nM, respectively.

Consider `Cc1cc(-c2[nH]c3ccc([C@@H]4C[C@H]4C(=O)N(C)C4CCNCC4)cc3c2C(C)C)ccn1` [Example 462], for which the results for the IC50 against human TLR7, against human TLR9 and at human TLR8 were 25 nM, 116 nM and 27 nM, respectively.

As for `Cc1cc(-c2[nH]c3ccc([C@@H]4C[C@H]4C(=O)N(C)C4CC5CCN4CC5)cc3c2C(C)C)ccn1` (stereo partly drawn) [Example 463], the half-maximal inhibitory concentration (IC50) on human TLR7 turned out to be 35 nM; at human TLR9, 406 nM; against human TLR8, 15 nM.

For `Cc1cc(-c2[nH]c3ccc([C@@H]4C[C@H]4CN4CCCC4)cc3c2C(C)C)ccn1` [Example 464], the IC50 against human TLR7 was 28 nM; on human TLR9 it was 271 nM; on human TLR8, 3.4 nM.

With `Cc1cc(-c2[nH]c3ccc(C4CCC(N5CCC(F)(F)CC5)CC4)cc3c2C(C)C)cn(C)c1=O` (stereo not drawn) [Example 465], the figures for the IC50 against human TLR7, against human TLR9 and against human TLR8 were 3 nM, greater than 50000 nM and 3.3 nM, respectively.

With `Cc1cc(-c2[nH]c3ccc(C4CCC(N5CCC(F)(F)CC5)CC4)cc3c2C(C)C)cn(C)c1=O` (stereo not drawn) [Example 466], the values for the IC50 at human TLR7, at human TLR9 and against human TLR8 were 32 nM, greater than 50000 nM and 26 nM, respectively.

`Cc1cc(-c2[nH]c3ccc(C4CCC(N5CCCC(F)(F)C5)CC4)cc3c2C(C)C)cn(C)c1=O` (stereo not drawn) [Example 467]: the figures for the IC50 on human TLR7, against human TLR9 and against human TLR8 were 48 nM, 47000 nM and 33 nM, respectively.

Take `Cc1cc(-c2[nH]c3ccc(C4CCC(N5CCCC(F)(F)C5)CC4)cc3c2C(C)C)cn(C)c1=O` (stereo not drawn) [Example 468]: the figures for the concentration for half-maximal inhibition (IC50) against human TLR7, against human TLR9 and at human TLR8 were 280 nM, greater than 50000 nM and 219 nM, respectively.

`Cc1cc(-c2[nH]c3ccc(C4CCCCC4)cc3c2C(C)C)cc(C)n1` [Example 469]: the 50% inhibitory concentration (IC50) at human TLR7 worked out at 1110 nM; against human TLR9 it was 9020 nM; against human TLR8, 3130 nM.

As for `Cc1cc(-c2[nH]c3ccc(C4CCCCC4)cc3c2C(C)C)cn(C)c1=O` [Example 470], the figures for the half-maximal inhibitory concentration (IC50) at human TLR7, against human TLR9 and on human TLR8 were 568 nM, 18300 nM and 3130 nM, respectively.

On to `Cc1c(-c2[nH]c3ccc(C4CCC(NC(=O)CN(C)C)CC4)cc3c2C(C)C)cn(C)c(=O)c1C` (stereo not drawn) [Example 471], for which the half-maximal inhibitory concentration (IC50) against human TLR7 was 43 nM; at human TLR9 it was 38300 nM; on human TLR8 it was 14 nM.

For `Cc1c(-c2[nH]c3ccc(C4CCC(NC(=O)CN(C)C)CC4)cc3c2C(C)C)cn(C)c(=O)c1C` (stereo not drawn) [Example 472], the concentration for half-maximal inhibition (IC50) stood at 3 nM against human TLR7, 23700 nM at human TLR9 and 4.6 nM against human TLR8.

With `Cc1c(-c2[nH]c3ccc(C4CCC(NCC(=O)N(C)C)CC4)cc3c2C(C)C)cn(C)c(=O)c1C` (stereo not drawn) [Example 473], the concentration for half-maximal inhibition (IC50) at human TLR7 was found to be 34 nM; on human TLR9, 8970 nM; on human TLR8, 15 nM.

Turning to `Cc1c(-c2[nH]c3ccc(C4CCC(NC5COC5)CC4)cc3c2C(C)C)cn(C)c(=O)c1C` (stereo not drawn) [Example 474], the IC50 against human TLR7 amounted to 45 nM; at human TLR9 it was 28900 nM; against human TLR8, 19 nM.

As for `Cc1c(-c2[nH]c3ccc(C4CCC(N(C)C)CC4)cc3c2C(C)C)cn(C)c(=O)c1C` (stereo not drawn) [Example 475], the results for the IC50 against human TLR7, against human TLR9 and at human TLR8 were 26 nM, 10600 nM and 28 nM, respectively.

Turning to `Cc1c(-c2[nH]c3ccc(C4CCC(N(C)C)CC4)cc3c2C(C)C)cn(C)c(=O)c1C` (stereo not drawn) [Example 476], the values for the 50% inhibitory concentration (IC50) against human TLR7, on human TLR9 and against human TLR8 were 3 nM, 4770 nM and 2.6 nM, respectively.
